# According to publication PMC9862096, “Interaction of a Homologous Series of Amphiphiles with P-glycoprotein in a Membrane Environment—Contributions of Polar and Non-Polar Interactions” (Pharmaceutics, 2023):
# Columns and labels:
# [1] = cited from earlier work
# [2] = Critical aggregation concentration from NBD fluorescence (literature); type: physicochemical; conditions: extrapolated from the co-solvent effect on NBD–Cn
# Description: One important aspect which is usually overlooked in the studies of interactions with P–gp is whether the molecule of interest is in its monomeric state or aggregated. Some studies with detergents have included information regarding the formation of micelles and concluded that a complex effect on the ATPase activity (enhancement and inhibition) is observed even for concentrations below their CMC [21, 32, 91]. However, small aggregates are formed at concentrations several orders of magnitude smaller than the concentration at which micelles are detectable (their CMC). The aggregation behavior of the NBD amphiphiles used in this study was characterized by changes in the fluorescence properties of the NBD group and is, therefore, sensitive to the formation of small aggregates including dimers. The critical aggregation concentrations (CAC) at 25 °C are 1, 4, and 250 μM for NBD–C8, NBD–LysoMPE, and NBD–C4, respectively. […] An increase to at least 24 µM is thus predicted for NBD–LysoMPE.
# [3] = cited from earlier work; remark: listed apart in the source
# [4] = Partition coefficient to membrane proteins from Equations (1) and (2), all membrane proteins with equal affinity; type: physicochemical, High-Five insect cells; conditions: binding to all membrane proteins with equal affinity; for KPW→P: aqueous phase to proteins; for KPLb→P: lipid bilayer to proteins
# Description: (§1) From the partition coefficient obtained for the native membranes, KPW→M , and that for the model lipid bilayers, KPW→Lb , one can calculate the partition coefficient between the aqueous phase and the proteins in the membrane, KPW→P , and from the lipid bilayer to the proteins, KPLb→P , Equations (1) and (2), [40]. (1) KPW→M VM=KPW→PVP+KPW→Lb VLb (2) KPLb→P=KPW→P/KPW→Lb
# (§2) In Equation (1) it is necessary to include the volume occupied by the proteins, and the values obtained will, therefore, depend on whether it is considered that the amphiphile may interact with all proteins in the membrane or with P–gp only.
# P–gp = assay: Partition coefficient to membrane protein from Equations (1) and (2), binding to P–gp only; type: physicochemical, mouse; conditions: binding to the protein P–gp only; for KPW→P: aqueous phase to protein; for KPLb→P: lipid bilayer to protein
# Description: as §1, §2
# [5] = Association (partition) with model membranes (LUVs POPE:POPC:POPS 45:35:20); type: physicochemical; conditions: aqueous phase to model lipid bilayer
# Experimental: The model membranes with a phospholipid composition representative of that of the native membranes (POPE:POPC:POPS 45:35 20) were prepared from stock solutions of the required lipids in chloroform or in chloroform/methanol (87/13, v/v), as described before. The solvent-free lipid residue was hydrated at 40 °C with previously heated simplified ATPase assay buffer (with all components except Ouabain and DTT). Large Unilamelar Vesicles were prepared by extrusion through two-staked polycarbonate filters (100 nm pore diameter), and the size of the LUVs was analyzed by dynamic light scattering (Zetasizer Nano ZS, Malvern, UK) being close to the filter pore size.
# The membranes were diluted to the chosen concentration with simplified ATPase assay buffer and warmed to 37 °C. The NBD amphiphiles were added from stocks in DMSO (final DMSO 1% v/v) by squirting the required volume into the membrane solution under gentle vortex. Fluorescence intensity was measured after 15 to 30 min incubation at 37 °C using a Cary Eclipse spectrofluorimeter (Varian, Singapore). The path length of the sample container was selected to guarantee that scattering at the excitation wavelength was smaller than 0.1 while maintaining a good signal/noise ratio (3, 5, or 10 mm).
# The increase in fluorescence of the NBD amphiphiles when associated with the model membranes was well described by a simple partition (Equation (S3)). The low affinity of the less lipophilic amphiphiles for the native membranes required the use of high membrane concentrations, and the fluorescence was measured with the plate reader SpectraMax iD5 (Molecular Devices, Berkshire, UK), where the reading setup is not very sensitive to scatter. To guarantee that the high scatter intensity was not leading to artifacts in the measured fluorescence intensity of NBD–C4, titrations of NBD-C6 and NBD–C8 were also performed in the same plate. For these two latter amphiphiles, the results obtained for the partition coefficient were similar to those obtained for experiments with low scatter intensity. A small decrease in the fluorescence intensity from NBD–C8 was nevertheless observed at very high scatter intensities (OD ≥ 0.5), which was used to correct the signal from the less lipophilic amphiphiles, see Supplementary Information (Figure S5 and Equation (S4)). The molar volume considered for the lipid was 0.8 dm^3/mol, and 1.2 g/mL was considered for the density of the membrane proteins.
# S3 – Partition of the NBD amphiphiles to lipid bilayers and native membranes
# The fluorescence increase that accompanies the association of the NBD amphiphiles with the
# model membra nes was well defined by a simple partition, equation S3.
# If 1540 nm Lb= + S3, KVL[]
# where IfW and If M are respec ti vel y the fluorescence intensity when all fluorescent amphiphile is
# in the aqueous phase and ass oci ated with the membranes, LbK is the partition co eff icient P
# between the aqueous and the lipid bilayer, V is the molar vo l u m e of the lipid when in the lipid L
# bi l ayer, and [L] is the lipid concentration. […]
# [6] = section: binding to all membrane proteins with equal affinity
# [7] = section: binding to the protein P–gp only
SMILES,"LogKP, partition coefficient for POPC bilayers [1]",CAC predicted in the presence of co-solvents [2],characteristic time of translocation between membrane leaflets [3],KPW→P [4],KPLb→P [4],KPW→P (P–gp),KPLb→P (P–gp),"LogKP, association with POPC bilayers [1]","KPW→Lb [5, 6]","KPW→Lb [5, 7]",time for equilibration between both membrane leaflets (translocation) ([3]; Section 3.4 and ref 77)
CCCCCCCCCCCCCC(=O)OCC(O)COP(=O)(O)OCCNc1ccc([N+](=O)[O-])c2nonc12 (stereo not drawn) [NBD–LysoMPE],4.2,at least 24 µM,several hours,,,,,,,,
CCCCNc1ccc([N+](=O)[O-])c2nonc12 [NBD–C4],,,,6.9 × 10^2,1.8,6.9 × 10^4,176,2.99,3.9 × 10^2,3.9 × 10^2,
CCCCCCCCNc1ccc([N+](=O)[O-])c2nonc12 [NBD–C8],,,,2.3 × 10^3,0.12,2.3 × 10^5,12,4.67,1.9 × 10^4,1.9 × 10^4,within a few seconds
